A short description of the data set: in vitro. As to conditions: human, hela cells, % viability.

As usually defined, the viability is a read-out of living cells in per cent, often relative to untreated cells. For the compound `CC1(c2ccco2)NC(=O)N(Cc2ncc(-c3cccs3)o2)C1=O` (stereo not drawn) [CBK305398], the viability at 28.5 h, 10 µM turned out to be 98.8%.

Take `COc1cc(S(=O)(=O)NCCOc2ccc(C(=O)O)cc2)c(OC)cc1Cl` [CBK299825]: the viability at 28.5 h, 10 µM was determined as 92.1%.

Consider `Cc1nc(C2(O)CCCN(Cc3cccc(F)c3)CC2)sc1CCOc1ccccc1` (stereo not drawn) [CBK286024], for which the viability at 28.5 h, 10 µM is 89.6%.

Consider `N#Cc1sc2nc(-c3ccncc3)ccc2c1N` [CBK288547], for which the viability at 28.5 h, 10 µM was 78.3%.

On to `C=CCn1nnc(NC(=O)COc2ccccc2)n1` [CBK288131], for which the viability at 28.5 h, 10 µM was found to be 108%.

Consider `COCCN1CCC2(C/C=C/C[C@H]3COCC[C@H]3NC(=O)CNC2=O)CC1` [CBK292145], for which the viability at 28.5 h, 10 µM came to 116%.

Consider `O=C(O)c1cccc2c1Sc1ccccc1O2` [CBK017129], for which the viability at 28.5 h, 10 µM was 90.8%.

On to `CC(c1ccccc1)N(C)C(=O)Cn1c(-c2cccs2)n[nH]c1=S` (stereo not drawn) [CBK296718], for which the viability at 28.5 h, 10 µM was 95.6%.

In the case of `Cc1nc2c(OCc3ccc(F)c(F)c3)cccn2c1N(C)C(=O)CCC1CCCC1` [CBK147202], the viability at 28.5 h, 10 µM amounted to 99.3%.

Turning to `O[C@H]1CCC[C@@H]1NCc1ccc(Cl)c(Cl)c1` [CBK005217], the viability at 28.5 h, 10 µM is 87%.

With `Cc1ccc(S(=O)(=O)Nc2ccc(Nc3nc(-c4ccccc4)cn4ccnc34)cc2)cc1` [CBK037303], the viability at 28.5 h, 10 µM was 104%.

With `CCN(CC(O)COc1ccc2ccccc2c1)S(=O)(=O)O` (stereo not drawn) [CBK261113K], the viability at 28.5 h, 10 µM came out at 87.2%.

Turning to `COc1ccc(OCC(=O)Nc2ccccc2N2CCN(S(C)(=O)=O)CC2)cc1` [CBK269177], the viability at 28.5 h, 10 µM amounted to 89.9%.

As to `CCC(CO)NCc1ccc(OCC(N)=O)cc1` (stereo not drawn) [CBK304670], the viability at 28.5 h, 10 µM turned out to be 100%.

For the compound `O=C1NCCN/C1=C\C(=O)c1ccc(Br)cc1` [CBK261427], the viability at 28.5 h, 10 µM worked out at 90.2%.

As to `CC1=CCCN(C(=O)C23CCOCC2CN(c2ncc(F)cn2)C3)C1` (stereo not drawn) [CBK304263], the viability at 28.5 h, 10 µM turned out to be 87.3%.

As to `CSCCC(=O)N1CCC2(CCN(Cc3ccccc3)C2)C1` (stereo not drawn) [CBK136838], the viability at 28.5 h, 10 µM was determined as 93.8%.

`O=C1CCC(=O)N1CCOc1nccnc1N1CCNCC1` [CBK074030T]: the viability at 28.5 h, 10 µM was found to be 97.6%.

On to `O=[N+]([O-])c1cc(S(=O)(=O)n2ccc3ccccc32)ccc1N1CCNCC1` [CBK024593C], for which the viability at 28.5 h, 10 µM is 91.2%.

As to `O=C(Nc1ccccc1)Nc1nc(=O)n(-c2ccccc2)s1` [CBK070710], the viability at 28.5 h, 10 µM was determined as 93%.

In the case of `Cc1cc(CN2CCN(C(C)c3nc(C(C)(C)C)no3)CC2)no1` (stereo not drawn) [CBK305641], the viability at 28.5 h, 10 µM stood at 97.7%.

As for `Cc1ccc(-c2[nH]ncc2C(=O)c2ccccc2C)c(O)c1` [CBK287929], the viability at 28.5 h, 10 µM was found to be 102%.

For the compound `CCN1CCC(CC(=O)NCCn2ccnc2C)CC1` [CBK281984], the viability at 28.5 h, 10 µM was 108%.

With `CCn1cncc1CN1CCC(O)(c2ccccc2F)CC1` [CBK282817], the viability at 28.5 h, 10 µM came out at 112%.

Regarding `C(=N\c1nc2ccccc2n1CCN1CCOCC1)/c1ccc2c(c1)OCO2` [CBK262270], the viability at 28.5 h, 10 µM worked out at 109%.

In the case of `O=C1CCCN1CCOc1nccnc1/C=C/c1ccccc1` [CBK106875], the viability at 28.5 h, 10 µM amounted to 92.4%.

In the case of `CC(=O)OC(C(=O)N1CCCCCC1)c1ccc(Br)cc1` (stereo not drawn) [CBK007027], the viability at 28.5 h, 10 µM stood at 109%.

In the case of `O=C(NCc1cccc(C(F)(F)F)c1)c1cnc(-c2ccccc2)c(-c2ccco2)c1` [CBK036667], the viability at 28.5 h, 10 µM worked out at 103%.

In the case of `CN(C)c1ccc(-c2cc(N3CCN(S(=O)(=O)c4ccc(Cl)cc4)CC3)ncn2)cc1` [CBK091158], the viability at 28.5 h, 10 µM is 93.5%.

Turning to `Cn1c2c(c(=O)n(C)c1=O)[C@H]1[C@H](O)[C@H](O)C[C@H]1C1(CCC1)N2` [CBK303250], the viability at 28.5 h, 10 µM was found to be 93.6%.

For the compound `O=[N+]([O-])c1ccc(O)c(/C=N/C(CO)(CO)CO)c1` [CBK261835], the viability at 28.5 h, 10 µM stood at 89.3%.

As to `O=C(C1CCC1)N1CCC2(CC1)Nc1cccnc1-n1cccc12` [CBK284505], the viability at 28.5 h, 10 µM is 92.5%.

For the compound `O=C(Nc1cncc(OC2CCNCC2)n1)c1cccnc1` [CBK036375T], the viability at 28.5 h, 10 µM stood at 92.1%.

On to `COc1cccc(CN2CCN(C(=O)c3cc(C)[nH]c3C)[C@@H](C)C2)c1` [CBK284255], for which the viability at 28.5 h, 10 µM turned out to be 99.1%.

Regarding `Cn1ccnc1Sc1nc2ccccc2nc1N1CCCC1` [CBK093791], the viability at 28.5 h, 10 µM was 92.4%.

In the case of `CSc1c(C#N)c(-c2cc(C(C)(C)C)on2)nn1C` [CBK006360], the viability at 28.5 h, 10 µM is 96.4%.

`O=[N+]([O-])c1cc(C(F)(F)F)ccc1N(CCO)CCO` [CBK262238]: the viability at 28.5 h, 10 µM turned out to be 94.9%.

Turning to `O=C1NC2(CCCC2)N=C1c1ccc(Cl)cc1Cl` [CBK288042], the viability at 28.5 h, 10 µM amounted to 82.4%.

With `COC(=O)[C@H]1CCc2ccccc2N1C(=O)c1ccco1` [CBK284259], the viability at 28.5 h, 10 µM turned out to be 84.5%.

For the compound `Nc1ncc(-c2ccc3c(c2)OCO3)nc1N1CCC(C(=O)O)CC1` [CBK064074], the viability at 28.5 h, 10 µM came to 101%.

In the case of `O=C(Cc1nn[nH]n1)Nc1ccc(F)c(Cl)c1` [CBK006384], the viability at 28.5 h, 10 µM worked out at 95.4%.

Regarding `CC(C)CC(=O)NCCn1nc(-c2cccs2)oc1=O` [CBK282342], the viability at 28.5 h, 10 µM stood at 114%.

`CN(Cc1nc2ccccc2c(=O)[nH]1)Cc1cc2c(cc1Br)OCCO2` [CBK296715]: the viability at 28.5 h, 10 µM is 108%.

Regarding `O=C(O)CSc1cccc2cccnc12` [CBK126918], the viability at 28.5 h, 10 µM came out at 95%.

`NS(=O)(=O)c1cc(C(=O)O)ccc1Cl` [CBK113676]: the viability at 28.5 h, 10 µM came out at 108%.

As for `Cc1ccc(CN2C[C@H]3C(=O)Nc4ccccc4C(=O)N[C@@]3(C)C2)o1` [CBK284706], the viability at 28.5 h, 10 µM was 95.7%.

On to `CCc1nnc(CN(C)Cc2c(C)nn(C)c2Cl)o1` [CBK304132], for which the viability at 28.5 h, 10 µM came out at 90.5%.

On to `CCn1cncc1CN(CCCn1ccnc1)Cc1ccc(C)s1` [CBK283104], for which the viability at 28.5 h, 10 µM was 93.6%.

Consider `CC(C)c1ccc(OCCN2CCNCC2)cc1` [CBK266024C], for which the viability at 28.5 h, 10 µM was 96%.

On to `Cc1nc2ccc(NC(=O)CC3CCN(S(=O)(=O)c4cccc(F)c4)CC3)cc2[nH]1` [CBK285903], for which the viability at 28.5 h, 10 µM came to 88.8%.

With `Cn1c(NCc2ccco2)nc2c1c(=O)n(Cc1cccc(Br)c1)c(=O)n2C` [CBK268863], the viability at 28.5 h, 10 µM amounted to 79.8%.

As for `O=C(Nc1cccc(F)c1C(=O)Nc1ccc(F)cc1F)c1cccs1` [CBK066849], the viability at 28.5 h, 10 µM came out at 87.3%.

Consider `CNCCc1csc2ccccc12` [CBK027127C], for which, where the note is “bulk resorufin, single well”, the viability at 28.5 h, 10 µM is 118%.

Consider `CCOC(=O)CN1C(c2ccccc2O)Nc2ccc(Br)cc2C1c1ccccc1` (stereo not drawn) [CBK263130], for which the viability at 28.5 h, 10 µM turned out to be 90.5%.

With `CCN(CC)CCCNC(=O)N1CCCC(C(=O)N(CC)CC)C1` (stereo not drawn) [CBK156149], the viability at 28.5 h, 10 µM stood at 94.1%.

Turning to `CCOC(=O)CSc1c2cc3c(nc2nc(=O)n1Cc1ccccc1)CC(C)(C)OC3` [CBK018608], the viability at 28.5 h, 10 µM amounted to 94.3%.

As to `O=C1C(=CNCCC(c2ccccc2)c2ccccc2)C(=O)c2ccccc21` [CBK262987], the viability at 28.5 h, 10 µM stood at 97%.

Take `CC(=O)Nc1cccc(NC(=O)c2cccc(Cn3cc(Cl)cn3)c2)c1` [CBK265899]: the viability at 28.5 h, 10 µM was determined as 90.5%.

As for `COc1ccc(CC(=O)N2CCCC(c3nccnc3-c3cccc(C)c3)C2)cc1` (stereo not drawn) [CBK286137], the viability at 28.5 h, 10 µM came to 94.1%.

As for `Cc1ccc2c(c1)CCN(S(C)(=O)=O)C21CCN(CCCOc2ccccc2)CC1` [CBK081066], the viability at 28.5 h, 10 µM amounted to 96.8%.

With `Cc1ccc2nc3c(cc(C(=O)NC4CCCC4)c(=N)n3Cc3ccco3)c(=O)n2c1` [CBK265242], the viability at 28.5 h, 10 µM came to 81%.

On to `Cc1ccc(C2CCCN2C(=O)c2ccc(=O)n(CC(=O)NC3CCCCC3)c2)cc1C` (stereo not drawn) [CBK285982], for which the viability at 28.5 h, 10 µM came out at 97.4%.

Turning to `COC(=O)[C@@H](C)NC(=O)[C@@H]1CN(C(=O)c2cccc(F)c2)CCN1C(=O)C1CCCCC1` [CBK289621], the viability at 28.5 h, 10 µM was determined as 87.4%.

In the case of `N=C(N)Nc1nc(-c2ccccc2)c2cc(F)ccc2n1` [CBK267350], the viability at 28.5 h, 10 µM was determined as 82.7%.

With `CCc1noc(C)c1C(=O)NCCN1CC(C)CC(C)C1` (stereo not drawn) [CBK282081], the viability at 28.5 h, 10 µM stood at 113%.

As for `C=CCSc1nc2ccccc2c(=O)n1CCc1ccccc1` [CBK055285], the viability at 28.5 h, 10 µM was determined as 81.9%.

As to `CC(C)NC(=O)Cn1cnc2c1c(=O)n(C)c(=O)n2C` [CBK133257], the viability at 28.5 h, 10 µM was determined as 86.9%.

Take `Cc1ccc2c(c1)oc(=O)n2CCNC(=O)Cc1c[nH]c2ccccc12` [CBK284473]: the viability at 28.5 h, 10 µM was 101%.

With `O=C(Cc1ccc(F)cc1F)N1CCC(Sc2ccc(-c3ccccc3)cc2)CC1` [CBK131950], the viability at 28.5 h, 10 µM is 105%.

As to `CCCC1C(C(N)=O)=C(C)NC(C)=C1C(N)=O` [CBK019102], the viability at 28.5 h, 10 µM amounted to 105%.

Turning to `CN1CCC(N2CCN(C(=O)NC3CCc4ccccc43)CC2)CC1` (stereo not drawn) [CBK156110], the viability at 28.5 h, 10 µM stood at 106%.

Consider `Cc1ccc2nc(/C(C#N)=C/c3ccc(-c4ccc(S(N)(=O)=O)cc4)o3)[nH]c2c1` [CBK266386], for which the viability at 28.5 h, 10 µM was determined as 94%.

Take `CCOC(=O)C1(C2CCCCC2)CCN(C(=O)CN2C(=O)CSC2=O)CC1` [CBK160993]: the viability at 28.5 h, 10 µM is 97.1%.

Consider `Cc1nccn1CCNC(=O)c1c2c(nn1C)CCCC2` [CBK281857], for which the viability at 28.5 h, 10 µM came to 100%.

Regarding `COc1ccc(Br)cc1C(=O)Nc1cc(-c2nc3ccccc3[nH]2)ccc1Cl` [CBK264112], the viability at 28.5 h, 10 µM amounted to 93.6%.

`Cc1cc(C(=O)NCc2c(-c3ccccc3)noc2C)n[nH]1` [CBK144076]: the viability at 28.5 h, 10 µM stood at 91.4%.

For `c1coc(-c2ccc(Nc3ccc4c(c3)OCCO4)nc2)c1` [CBK037765], the viability at 28.5 h, 10 µM turned out to be 96.9%.

Take `CC(=O)NCc1cccc(-c2cc(C(=O)Nc3ccc4c(c3)OCCO4)cnc2-c2cccnc2)c1` [CBK160658]: the viability at 28.5 h, 10 µM amounted to 88.6%.

Turning to `O=C(CSc1nnc(-c2ccc(Cl)cc2Cl)o1)c1cc2ccccc2oc1=O` [CBK268698], the viability at 28.5 h, 10 µM worked out at 88.7%.

On to `Cc1nc(S(=O)(=O)N2CCOC3(CCCC3)C2)cn1C` [CBK304834], for which the viability at 28.5 h, 10 µM was found to be 109%.

With `Cn1c(SCC(=O)n2c3c(c4ccccc42)CCCC3)nnc1-c1ccco1` [CBK267370], the viability at 28.5 h, 10 µM was 99.2%.
